Measurements published in article PMC12373729 (Scientific Reports, 2025).
pIC50: −log10 of the molar value. “Also recorded” adds a separate entry of the source. Where a name gives a salt, the structure may show the parent alone. Read-outs that look alike come from different tables or passages of the source.

Experiments:
SARS-CoV-2 [1] = test: microbe, parasite or virus in culture; type: cell-based
[2] = Cell viability / 50% cytotoxic concentration, EZ-Cytox kit; settings: African green monkey, CC50, Vero E6 cells
[3] = all patients, clinical settings; cited from earlier work
Vero E6 cells [4] = tested on: Vero E6 cells
in vitro = settings: African green monkey
[5] = tested on: SARS-CoV-2 papain-like protease; settings: cited from earlier work
CHIKV nsP2 protease = tested on: CHIKV nsP2 protease; design: method as in Cardoso et al. 43, 44; settings: ref Cardoso et al. 43, 44; cited from earlier work
YFV protease = settings: competitive inhibition; ref Cardoso et al. 43, 44; cited from earlier work
ZIKV protease = tested on: ZIKV protease; design: method as in Cardoso et al. 43, 44; settings: competitive inhibition; ref Cardoso et al. 43, 44; cited from earlier work
SARS-CoV-2 [6] = settings: cited from earlier work
Vero E6 cells [7] = test: Cell viability / 50% cytotoxic concentration, EZ-Cytox kit; settings: Vero E6 cells, 1 nM–100 µM, 2 days of treatment; Table S2
[8] = Severe acute respiratory syndrome coronavirus 2, Vero C1008, Vero E6 cells, MOI 0.01, treatment during inoculation 2 h, then drug-free 48 h, Fig. 1, read-out: IC50
[9] = Severe acute respiratory syndrome coronavirus 2, Vero C1008, compound added 2 h before inoculation, washed, then infected 2 h, titers 48 h post-infection, '-' = no measurable antiviral effect, read-out: IC50 Pre-infection
[10] = Severe acute respiratory syndrome coronavirus 2, Vero C1008, infected 2 h, washed, then medium containing compound, titers 48 h post-infection, '-' = no measurable antiviral effect, read-out: IC50 Post-infection
[11] = Vero E6 cells, MOI 0.01, treatment during inoculation 2 h, then drug-free 48 h, Fig. 1, read-out: IC50
[12] = 1 nM–100 µM, 2 days of treatment, Table S2
[13] = Vero E6 cells, MOI 0.01, compound together with virus for 2 h, titers at 48 h, Table S2, '-' = no significant antiviral effect, read-out: IC50
[14] = Severe acute respiratory syndrome coronavirus 2, Vero C1008, Vero E6 cells, MOI 0.01, compound together with virus for 2 h, titers at 48 h, Table S2, '-' = no significant antiviral effect, read-out: IC50

Compound: CCC(CC)COC(=O)[C@H](C)N[P@](=O)(OC[C@H]1O[C@@](C#N)(c2ccc3c(N)ncnn23)[C@H](O)[C@@H]1O)Oc1ccccc1 [Remdesivir]
- pIC50 (SARS-CoV-2 [1]; [8]): 4.59
- pIC50 (SARS-CoV-2 [1]; [9]): > 5.21
- pIC50 (SARS-CoV-2 [1]; [10]): 5.46
- pIC50 (SARS-CoV-2 [1]; [11]): 4.59
- CC50 at 2 days ([2]; 0–100 μM, Table S3): 98.9 µM
- CC50 at 2 days [2, 12]: > 100 µM
- patients with elevated liver enzymes [3]: 35%

Compound: Nc1ncnc2c1ncn2[C@@H]1O[C@@H]2COP(=O)(O)O[C@H]3[C@@H](O)[C@H](n4cnc5c(N)ncnc54)O[C@@H]3COP(=O)(O)O[C@H]2[C@H]1O [c-di-AMP sodium salt (2BA), c-di-AMP sodium salt]
- pIC50 (SARS-CoV-2 [1]; [13]): < 4.00
- CC50 (Vero E6 cells [4]): > 100 µM

Compound: Nc1ncnc2nc[nH]c12 [Adenine (ADE), adenine]
- CC50 (in vitro): > 100 µM
- pIC50 (SARS-CoV-2 [1]; [14]): < 4.00

Compound: O=c1[nH]cnc2nc[nH]c12 [Hypoxanthine (HPA), hypoxanthine]
- pIC50 (SARS-CoV-2 [1]; [14]): < 4.00
- CC50 at 2 days [2, 12]: > 100 µM

Compound: Cc1cc2nc3c(=O)[nH]c(=O)nc-3n(C[C@H](O)[C@H](O)[C@H](O)CO)c2cc1C [riboflavin]
- pIC50 (SARS-CoV-2 [1]; [8]): 4.23
- antiviral effect, treatment post-infection (SARS-CoV-2 [1]; Vero E6 cells, 2 h post-infection, in words): no measurable antiviral effects; also recorded: no effect
- antiviral effect, treatment prior to infection (SARS-CoV-2 [1]; Vero E6 cells, 2 h prior to infection, in words): no measurable antiviral effects; also recorded: no effect
- pIC50 (SARS-CoV-2 [1]; [11]): 4.23
- antiviral effect, treatment during viral inoculation (SARS-CoV-2 [1]; Vero E6 cells, in words): significant inhibition; also recorded: significantly reduced viral replication
- effect on viral replication when added to the culture medium after viral inoculation (SARS-CoV-2 [1]; drug-containing media for 48 h, Supplementary Fig. S1, in words): additional inhibitory effects on viral replication were observed
- CC50 at 2 days ([2]; text and Fig. 1 (Fig. 1: 2 h treatment, then drug-free media 48 h)): > 100 µM
- concentration inhibiting SARS-CoV-2 papain-like protease in vitro [5]: > 50 µM
- concentration inhibiting viral papain-like protease (PLpro) ([5]; high concentrations, ref 2 (supplement)): > 50 µM
- activity against CHIKV nsP2 protease (CHIKV nsP2 protease): potent activity
- IC50, YFV protease (YFV protease): medium micromolar range
- IC50, ZIKV protease (ZIKV protease): medium micromolar range
- effect on viral replication in cellular models (SARS-CoV-2 [6]): fails to block viral replication

Compound: COc1cc2nc(N3CCNCC3)nc(N)c2cc1OC [6,7-dimethoxy-2-(1-piperazinyl)-4-quinazolinamine]
- CC50 at 2 days (in vitro): > 100 µM
- pIC50 (SARS-CoV-2 [1]; [14]): < 4.00

Compound: Nc1ncnc2c1ncn2[C@@H]1O[C@H](CSCC[C@H](N)C(=O)O)[C@@H](O)[C@H]1O [S-Adenosyl-L-homocysteine (SAH), S-adenosyl-l-homocysteine]
- pIC50 (SARS-CoV-2 [1]; [13]): < 4.00
- CC50 (Vero E6 cells [7]): > 100 µM

Compound: Cc1cc2nc3c(=O)[nH]c(=O)nc-3n(C[C@H](O)[C@H](O)[C@H](O)COP(=O)(O)O)c2cc1C [riboflavin 5′-monophosphate sodium salt hydrate]
- CC50 at 2 days (in vitro): 98.9 µM
- pIC50 (SARS-CoV-2 [1]; [14]): 4.23
- pIC50 (SARS-CoV-2 [1]; [9]): < 4.00
- pIC50 (SARS-CoV-2 [1]; Severe acute respiratory syndrome coronavirus 2, Vero C1008, compound and virus simultaneously for 2 h, washed, titers 48 h post-infection, read-out: IC50 During infection): 4.23
- pIC50 (SARS-CoV-2 [1]; [10]): < 4.00
- CC50 (Vero E6 cells [4]; African green monkey, 2 days): > 100 µM

Compound: N[C@@H](Cc1c[nH]c2ccc(O)cc12)C(=O)O [5-Hydroxy-L-tryptophan (4PQ), 5-hydroxy-L-tryptophan]
- CC50 at 2 days (in vitro): > 100 µM
- pIC50 (SARS-CoV-2 [1]; [14]): < 4.00

Compound: C/C1=C2/[N-][C@H]([C@H](CC(N)=O)[C@@]2(C)CCC(=O)NC[C@@H](C)OP(=O)([O-])O[C@H]2[C@@H](O)[C@@H](n3cnc4cc(C)c(C)cc43)O[C@@H]2CO)[C@]2(C)N=C(/C(C)=C3N=C(/C=C4N=C1[C@@H](CCC(N)=O)C\4(C)C)[C@@H](CCC(N)=O)[C@]\3(C)CC(N)=O)[C@@H](CCC(N)=O)[C@]2(C)CC(N)=O.[Co+3].[OH-] [Hydroxocobalamin (HPA), hydroxocobalamin]
- pIC50 (SARS-CoV-2 [1]; [13]): < 4.00
- CC50 (Vero E6 cells [7]): > 100 µM

Compound: NC[C@@H]1O[C@H](O[C@H]2[C@@H](O)[C@H](O[C@@H]3[C@@H](O)[C@H](N)C[C@H](N)[C@H]3O[C@H]3O[C@H](CN)[C@@H](O)[C@H](O)[C@H]3N)O[C@@H]2CO)[C@H](N)[C@@H](O)[C@@H]1O [Neomycin solution (NMY), neomycin solution]
- pIC50 (SARS-CoV-2 [1]; [13]): < 4.00
- CC50 (Vero E6 cells [7]): > 100 µM

Compound: Nc1nc2c(ncn2[C@@H]2O[C@@H]3COP(=O)(O)O[C@H]4[C@@H](O)[C@H](n5cnc6c(N)ncnc65)O[C@@H]4COP(=O)(O)O[C@H]3[C@H]2O)c(=O)[nH]1 [cGAMP sodium salt]
- pIC50 (SARS-CoV-2 [1]; [13]): < 4.00
- CC50 (Vero E6 cells [7]): > 100 µM

Compound: C/C1=C2/N[C@H]([C@H](CC(N)=O)[C@@]2(C)CCC(=O)NC[C@@H](C)OP(=O)(O)O[C@H]2[C@@H](O)[C@@H](n3cnc4cc(C)c(C)cc43)O[C@@H]2CO)[C@]2(C)N=C(/C(C)=C3N=C(/C=C4N=C1[C@@H](CCC(N)=O)C\4(C)C)[C@@H](CCC(N)=O)[C@]\3(C)CC(N)=O)[C@@H](CCC(N)=O)[C@]2(C)CC(N)=O.C[C@H]1O[C@@H](n2cnc3c(N)ncnc32)[C@H](O)[C@@H]1O.[Co] [Coenzyme B12 (B1Z), coenzyme B12]
- pIC50 (SARS-CoV-2 [1]; [13]): < 4.00
- CC50 (Vero E6 cells [4]): > 100 µM
